≈ marks a conversion by molar mass, not a printed value. Where “and” joins values, the source holds several entries; their conditions need not be identical. Equal values may be shown once.
Legend:
Experiment in all cases: ≥ marks a high value that may be exact or a test limit, other limits are often not marked, values filed in µg/mL are converted to µM
[1] = tested on: Staphylococcus aureus ATCC 25923
[2] = tested on: Acinetobacter baumannii KCTC 2508
[3] = tested on: Bacillus subtilis KCTC 2217
[4] = tested on: Acinetobacter baumannii AL1851-ΔLpxA
[5] = tested on: Acinetobacter baumannii Al1852-ΔLpxD
[6] = tested on: Escherichia coli DSM 1103
[7] = tested on: Pseudomonas aeruginosa DSM 1117
[8] = tested on: Klebsiella pneumoniae DSM 789
[9] = tested on: Salmonella enterica DSM 17058
Shigella sonnei DSM 5570 = tested on: Shigella sonnei DSM 5570
[10] = tested on: Acinetobacter baumannii ATCC 19606
[11] = tested on: Staphylococcus epidermidis DSM 28319
[12] = tested on: Citrobacter freundii DSM 30029
[13] = tested on: Staphylococcus aureus DSM 11729
[14] = tested on: Staphylococcus aureus ATCC 29213
[15] = tested on: Bacillus subtilis ATCC 6633
[16] = tested on: Proteus mirabilis CCUG 26767
[17] = tested on: Pseudomonas aeruginosa ATCC 27853
[18] = tested on: Enterococcus faecium ATCC 19434
[19] = tested on: Klebsiella pneumoniae ATCC 13883
[20] = tested on: Salmonella enterica subsp. enterica serovar Typhimurium LT2
[21] = tested on: Escherichia coli ATCC 25922
[22] = tested on: Enterococcus faecalis ATCC 19433
[23] = tested on: Staphylococcus aureus NCTC 10788
[24] = tested on: Klebsiella pneumoniae ATCC 43816
[25] = tested on: Enterococcus faecalis NCTC 12697
[26] = tested on: Candida albicans NCYC 1467
Staphylococcus aureus = tested on: Staphylococcus aureus
[27] = tested on: Staphylococcus aureus ATCC 12493
[28] = tested on: Escherichia coli NCTC 10418
[29] = tested on: Candida parapsilosis CGMCC 2.3989
[30] = tested on: Salmonella enterica subsp. enterica serovar Typhimurium C77-31
Escherichia coli 078 = tested on: Escherichia coli 078
[31] = tested on: Pseudomonas aeruginosa PAO1
[32] = tested on: Lactiplantibacillus plantarum 8014
[33] = tested on: Staphylococcus epidermidis ATCC 12228
[34] = tested on: Lacticaseibacillus rhamnosus 7469
[35] = tested on: Salmonella enterica subsp. enterica serovar Typhimurium ATCC 14028
[36] = tested on: Candida albicans CGMCC 2.2086
Escherichia coli K88 = tested on: Escherichia coli K88
[37] = tested on: Candida tropicalis CGMCC 2.1975
Escherichia coli 987P = tested on: Escherichia coli 987P
Escherichia coli UB1005 = tested on: Escherichia coli UB1005
Escherichia coli K99 = tested on: Escherichia coli K99
Bacillus megaterium Bm11 = tested on: Bacillus megaterium Bm11
Escherichia coli ML-35 = tested on: Escherichia coli ML-35
[38] = tested on: Staphylococcus aureus 710A

CC(C)C[C@H](NC(=O)[C@H](CC(C)C)NC(=O)[C@H](CCCCN)NC(=O)[C@H](CCCCN)NC(=O)[C@H](CC(C)C)NC(=O)[C@H](CC(C)C)NC(=O)[C@@H]1CCCN1C(=O)[C@H](CCCCN)NC(=O)[C@H](CCCCN)NC(=O)[C@H](CC(C)C)NC(=O)[C@H](CC(C)C)NC(=O)[C@H](CCCCN)NC(=O)[C@H](CCCCN)NC(=O)[C@H](Cc1c[nH]c2ccccc12)NC(=O)[C@@H](N)CCCCN)C(=O)N[C@@H](CCCCN)C(N)=O [KWKKLLKKPLLKKLLK]
MIC [1]: 1.56 µM and > 0.78 µM
MIC [2]: 3.13 µM (≈ 6.27 µg/mL)
MIC [3]: 1.56 µM (≈ 3.13 µg/mL)

CC[C@H](C)[C@H](NC(=O)[C@H](CC(=O)O)NC(=O)[C@H](Cc1c[nH]c2ccccc12)NC(=O)[C@H](CCCCN)NC(=O)[C@@H]1CCCN1C(=O)[C@H](CC(C)C)NC(=O)[C@H](CCSC)NC(=O)[C@H](Cc1ccc(O)cc1)NC(=O)[C@H](CC(C)C)NC(=O)[C@H](CC(N)=O)NC(=O)[C@@H](NC(=O)CNC(=O)[C@H](CCCCN)NC(=O)[C@H](Cc1ccccc1)NC(=O)[C@H](Cc1ccccc1)NC(=O)[C@H](CCCCN)NC(=O)[C@H](Cc1ccccc1)NC(=O)[C@H](Cc1ccccc1)NC(=O)[C@H](CCCCN)NC(=O)[C@H](Cc1ccccc1)NC(=O)[C@H](Cc1ccccc1)NC(=O)[C@@H](N)CCCCN)[C@@H](C)O)C(=O)N1CCC[C@H]1C(N)=O [KFFKFFKFFKGTNLYMLPKWDIP]
MIC [4]: 0.25 µM (≈ 0.736 µg/mL)
MIC [5]: 0.25 µM (≈ 0.736 µg/mL)
MIC [6]: 0.5 µM (≈ 1.47 µg/mL)
MIC [7]: 1 µM (≈ 2.94 µg/mL)
MIC [8]: 0.25 µM (≈ 0.736 µg/mL)
MIC [9]: 2 µM (≈ 5.89 µg/mL)
MIC (Shigella sonnei DSM 5570): 0.25 µM (≈ 0.736 µg/mL)
MIC [10]: 0.25 µM (≈ 0.736 µg/mL)
MIC [11]: 1 µM (≈ 2.94 µg/mL)
MIC [12]: 0.5 µM (≈ 1.47 µg/mL)
MIC [13]: ≥ 32 µM

CC[C@H](C)[C@H](NC(=O)[C@H](CCCCN)NC(=O)[C@@H]1CCCN1C(=O)[C@H](CC(C)C)NC(=O)[C@@H](N)Cc1ccccc1)C(=O)N[C@@H](CC(C)C)C(=O)N[C@@H](CCCN=C(N)N)C(=O)N[C@@H](CCCCN)C(=O)N[C@H](C(=O)N[C@H](C(=O)N[C@@H](CCCN=C(N)N)C(=O)N[C@@H](C)C(=O)N[C@@H](CC(C)C)C(N)=O)C(C)C)[C@@H](C)CC [FLPKILRKIVRAL]
MIC [14]: 191 µM (≈ 300 µg/mL)
MIC [15]: ≥ 47.9 µM
MIC [16]: ≥ 383 µM
MIC [17]: > 383 µM
MIC [18]: 23.9 µM (≈ 37.5 µg/mL)
MIC [19]: ≥ 47.9 µM
MIC [20]: ≥ 47.9 µM
MIC [21]: 23.9 µM (≈ 37.5 µg/mL)
MIC [22]: 23.9 µM (≈ 37.5 µg/mL)

CC(C)C[C@H](NC(=O)[C@H](C)N)C(=O)N[C@@H](Cc1c[nH]c2ccccc12)C(=O)N[C@@H](CCCCN)C(=O)N[C@@H](CCCCN)C(=O)N[C@@H](CC(C)C)C(=O)N[C@@H](CC(C)C)C(=O)N[C@@H](CCCCN)C(=O)N[C@@H](CCCCN)C(=O)N[C@@H](C)C(N)=O [ALWKKLLKKA]
MIC [23]: ≥ 64 µM
MIC [24]: ≥ 256 µM
MIC [17]: 32 µM (≈ 38.3 µg/mL)
MIC [25]: ≥ 256 µM
MIC [26]: ≥ 64 µM
MIC (Staphylococcus aureus): > 256 µM
MIC [27]: ≥ 256 µM
MIC [28]: 8 µM (≈ 9.58 µg/mL)

CC[C@H](C)[C@H](N)C(=O)N[C@@H](Cc1cnc[nH]1)C(=O)N[C@@H](Cc1cnc[nH]1)C(=O)N[C@H](C(=O)N[C@@H](Cc1cnc[nH]1)C(=O)N[C@@H](Cc1cnc[nH]1)C(=O)N[C@H](C(N)=O)[C@@H](C)CC)[C@@H](C)CC [IHHIHHI]
MIC [14]: > 64 µM
MIC [29]: ≥ 64 µM
MIC [30]: ≥ 64 µM
MIC (Escherichia coli 078): ≥ 64 µM
MIC [1]: > 64 µM
MIC [31]: > 64 µM
MIC [17]: > 64 µM
MIC [32]: ≥ 64 µM
MIC [33]: > 64 µM
MIC [34]: ≥ 64 µM
MIC [35]: > 64 µM
MIC [36]: ≥ 64 µM
MIC (Escherichia coli K88): ≥ 64 µM
MIC [37]: ≥ 64 µM
MIC (Escherichia coli 987P): ≥ 64 µM
MIC (Escherichia coli UB1005): ≥ 64 µM
MIC (Escherichia coli K99): ≥ 64 µM
MIC [21]: > 64 µM

CC[C@H](C)[C@H](NC(=O)[C@H](CCCCN)NC(=O)[C@H](CCCCN)NC(=O)[C@H](CC(C)C)NC(=O)[C@H](CC(C)C)NC(=O)CN)C(=O)N[C@@H](C)C(=O)N[C@@H](CCCCN)C(=O)N[C@@H](CCCCN)C(=O)N[C@@H](C)C(=O)N[C@@H](CCCCN)C(=O)N[C@@H](CCCCN)C(=O)N[C@@H](C)C(=O)N[C@@H](CC(C)C)C(=O)N[C@@H](CCCCN)C(=O)N[C@@H](CCCCN)C(=O)N[C@@H](CC(C)C)C(=O)NCC(=O)N[C@@H](Cc1ccc(O)cc1)C(N)=O [GLLKKIAKKAKKALKKLGY]
MIC [17]: 1 µM (≈ 2.1 µg/mL)
MIC [35]: 2 µM (≈ 4.2 µg/mL)
MIC (Bacillus megaterium Bm11): 1 µM (≈ 2.1 µg/mL)
MIC (Escherichia coli ML-35): 1 µM (≈ 2.1 µg/mL)
MIC [38]: 4 µM (≈ 8.39 µg/mL)
